Source: PubChem BioAssay (NCI)
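Where inhibition never reached the appropriate level, the endpoint shown equals the highest concentration tested. Otherwise, values were interpolated linearly from a five-concentration, 48-hour dose response in 96-well plates. TGI marks complete inhibition of growth.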

Columns and labels:
Assay in all cases: growth of human tumour cells (NCI), 48 h
786-0 renal = test system: 786-0 renal
A498 renal = test system: A498 renal
A549 NSCLC = test system: A549 NSCLC
ACHN renal = test system: ACHN renal
BT-549 breast = test system: BT-549 breast
CAKI-1 renal = test system: CAKI-1 renal
CCRF-CEM leukemia = test system: CCRF-CEM leukemia
COLO 205 colon = test system: COLO 205 colon
DU-145 prostate = test system: DU-145 prostate
EKVX NSCLC = test system: EKVX NSCLC
HCC-2998 colon = test system: HCC-2998 colon
HCT-116 colon = test system: HCT-116 colon
HCT-15 colon = test system: HCT-15 colon
HL-60(TB) leukemia = test system: HL-60(TB) leukemia
HOP-62 NSCLC = test system: HOP-62 NSCLC
HOP-92 NSCLC = test system: HOP-92 NSCLC
HS 578T breast = test system: HS 578T breast
HT29 colon = test system: HT29 colon
IGROV1 ovarian = test system: IGROV1 ovarian
K-562 leukemia = test system: K-562 leukemia
KM12 colon = test system: KM12 colon
LOX IMVI melanoma = test system: LOX IMVI melanoma
M14 melanoma = test system: M14 melanoma
MALME-3M melanoma = test system: MALME-3M melanoma
MCF7 breast = test system: MCF7 breast
MDA-MB-231 breast = test system: MDA-MB-231 breast
MDA-MB-435 = test system: MDA-MB-435
MDA-N = test system: MDA-N
MOLT-4 leukemia = test system: MOLT-4 leukemia
NCI-H226 lung = test system: NCI-H226 lung
NCI-H23 lung = test system: NCI-H23 lung
NCI-H460 lung = test system: NCI-H460 lung
NCI-H522 lung = test system: NCI-H522 lung
NCI/ADR-RES ovarian = test system: NCI/ADR-RES ovarian
OVCAR-3 ovarian = test system: OVCAR-3 ovarian
OVCAR-4 ovarian = test system: OVCAR-4 ovarian
OVCAR-5 ovarian = test system: OVCAR-5 ovarian
OVCAR-8 ovarian = test system: OVCAR-8 ovarian
PC-3 prostate = test system: PC-3 prostate
RPMI-8226 leukemia = test system: RPMI-8226 leukemia
RXF 393 renal = test system: RXF 393 renal
SF-268 CNS = test system: SF-268 CNS
SF-295 CNS = test system: SF-295 CNS
SF-539 CNS = test system: SF-539 CNS
SK-MEL-2 melanoma = test system: SK-MEL-2 melanoma
SK-MEL-28 melanoma = test system: SK-MEL-28 melanoma
SK-MEL-5 melanoma = test system: SK-MEL-5 melanoma
SN12C renal = test system: SN12C renal
SNB-19 CNS = test system: SNB-19 CNS
SNB-75 CNS = test system: SNB-75 CNS
SR leukemia = test system: SR leukemia
SW-620 colon = test system: SW-620 colon
T-47D breast = test system: T-47D breast
TK-10 renal = test system: TK-10 renal
U251 CNS = test system: U251 CNS
UACC-257 melanoma = test system: UACC-257 melanoma
UACC-62 melanoma = test system: UACC-62 melanoma
UO-31 renal = test system: UO-31 renal
SK-OV-3 ovarian = test system: SK-OV-3 ovarian

C=CCOc1ccc(C2C(C(=O)OCC)C(=O)CC(C)(O)C2C(=O)OCC)cc1OC (configuration not stated)
TGI (786-0 renal): > 100 µM | TGI (A498 renal): > 100 µM | TGI (A549 NSCLC): > 100 µM | TGI (ACHN renal): > 100 µM | TGI (BT-549 breast): > 100 µM | TGI (CAKI-1 renal): > 100 µM | TGI (CCRF-CEM leukemia): > 100 µM | TGI (COLO 205 colon): > 100 µM | TGI (DU-145 prostate): > 100 µM | TGI (EKVX NSCLC): > 100 µM | TGI (HCC-2998 colon): > 100 µM | TGI (HCT-116 colon): > 100 µM | TGI (HCT-15 colon): > 100 µM | TGI (HL-60(TB) leukemia): > 100 µM | TGI (HOP-62 NSCLC): > 100 µM | TGI (HOP-92 NSCLC): > 100 µM | TGI (HS 578T breast): > 100 µM | TGI (HT29 colon): > 100 µM | TGI (IGROV1 ovarian): > 100 µM | TGI (K-562 leukemia): > 100 µM | TGI (KM12 colon): > 100 µM | TGI (LOX IMVI melanoma): > 100 µM | TGI (M14 melanoma): > 100 µM | TGI (MALME-3M melanoma): > 100 µM | TGI (MCF7 breast): > 100 µM | TGI (MDA-MB-231 breast): > 100 µM | TGI (MDA-MB-435): > 100 µM | TGI (MDA-N): > 100 µM | TGI (MOLT-4 leukemia): > 100 µM | TGI (NCI-H226 lung): > 100 µM | TGI (NCI-H23 lung): > 100 µM | TGI (NCI-H460 lung): > 100 µM | TGI (NCI-H522 lung): > 100 µM | TGI (NCI/ADR-RES ovarian): > 100 µM | TGI (OVCAR-3 ovarian): > 100 µM | TGI (OVCAR-4 ovarian): > 100 µM | TGI (OVCAR-5 ovarian): > 100 µM | TGI (OVCAR-8 ovarian): > 100 µM | TGI (PC-3 prostate): > 100 µM | TGI (RPMI-8226 leukemia): > 100 µM | TGI (RXF 393 renal): > 100 µM | TGI (SF-268 CNS): > 100 µM | TGI (SF-295 CNS): > 100 µM | TGI (SF-539 CNS): > 100 µM | TGI (SK-MEL-2 melanoma): > 100 µM | TGI (SK-MEL-28 melanoma): > 100 µM | TGI (SK-MEL-5 melanoma): > 100 µM | TGI (SN12C renal): > 100 µM | TGI (SNB-19 CNS): > 100 µM | TGI (SNB-75 CNS): > 100 µM | TGI (SR leukemia): > 100 µM | TGI (SW-620 colon): > 100 µM | TGI (T-47D breast): > 100 µM | TGI (TK-10 renal): > 100 µM | TGI (U251 CNS): > 100 µM | TGI (UACC-257 melanoma): > 100 µM | TGI (UACC-62 melanoma): > 100 µM | TGI (UO-31 renal): > 100 µM

O=C(O)c1ccc(OCc2nc3cc(C(F)(F)F)ccc3nc2-c2ccccc2)cc1
TGI (786-0 renal): > 100 µM | TGI (A498 renal): > 100 µM | TGI (A549 NSCLC): > 100 µM | TGI (ACHN renal): 67.6 µM | TGI (BT-549 breast): > 100 µM | TGI (CAKI-1 renal): 19.6 µM | TGI (CCRF-CEM leukemia): > 100 µM | TGI (COLO 205 colon): 37.8 µM | TGI (DU-145 prostate): > 100 µM | TGI (EKVX NSCLC): > 100 µM | TGI (HCC-2998 colon): > 100 µM | TGI (HCT-116 colon): > 100 µM | TGI (HCT-15 colon): > 100 µM | TGI (HL-60(TB) leukemia): > 100 µM | TGI (HOP-62 NSCLC): > 100 µM | TGI (HOP-92 NSCLC): > 100 µM | TGI (HS 578T breast): > 100 µM | TGI (HT29 colon): > 100 µM | TGI (IGROV1 ovarian): > 100 µM | TGI (K-562 leukemia): > 100 µM | TGI (KM12 colon): > 100 µM | TGI (LOX IMVI melanoma): > 100 µM | TGI (M14 melanoma): > 100 µM | TGI (MCF7 breast): > 100 µM | TGI (MDA-MB-231 breast): > 100 µM | TGI (MDA-MB-435): > 100 µM | TGI (MDA-N): > 100 µM | TGI (NCI-H226 lung): > 100 µM | TGI (NCI-H23 lung): > 100 µM | TGI (NCI-H460 lung): > 100 µM | TGI (NCI-H522 lung): > 100 µM | TGI (NCI/ADR-RES ovarian): > 100 µM | TGI (OVCAR-3 ovarian): > 100 µM | TGI (OVCAR-5 ovarian): > 100 µM | TGI (OVCAR-8 ovarian): > 100 µM | TGI (PC-3 prostate): > 100 µM | TGI (RXF 393 renal): > 100 µM | TGI (SF-268 CNS): > 100 µM | TGI (SF-295 CNS): > 100 µM | TGI (SF-539 CNS): 76.8 µM | TGI (SK-MEL-2 melanoma): > 100 µM | TGI (SK-MEL-28 melanoma): > 100 µM | TGI (SK-MEL-5 melanoma): > 100 µM | TGI (SN12C renal): > 100 µM | TGI (SNB-19 CNS): > 100 µM | TGI (SNB-75 CNS): 98.7 µM | TGI (SR leukemia): > 100 µM | TGI (SW-620 colon): > 100 µM | TGI (T-47D breast): > 100 µM | TGI (TK-10 renal): > 100 µM | TGI (U251 CNS): > 100 µM | TGI (UACC-257 melanoma): > 100 µM | TGI (UACC-62 melanoma): > 100 µM | TGI (UO-31 renal): 39 µM

CC1=C(CO)C(=O)O[C@@H]([C@@H](CO)[C@H]2CCC3C4C[C@@H](O)[C@@]5(O)CC=CC(=O)[C@]5(C)C4CC[C@@]32C)C1 (some centres not stated)
TGI (786-0 renal): > 100 µM | TGI (A498 renal): > 100 µM | TGI (A549 NSCLC): > 100 µM | TGI (ACHN renal): > 100 µM | TGI (BT-549 breast): > 100 µM | TGI (CAKI-1 renal): > 100 µM | TGI (CCRF-CEM leukemia): > 100 µM | TGI (COLO 205 colon): > 100 µM | TGI (DU-145 prostate): > 100 µM | TGI (EKVX NSCLC): > 100 µM | TGI (HCC-2998 colon): > 100 µM | TGI (HCT-116 colon): > 100 µM | TGI (HCT-15 colon): > 100 µM | TGI (HL-60(TB) leukemia): > 100 µM | TGI (HOP-62 NSCLC): > 100 µM | TGI (HOP-92 NSCLC): > 100 µM | TGI (HS 578T breast): > 100 µM | TGI (HT29 colon): > 100 µM | TGI (IGROV1 ovarian): > 100 µM | TGI (K-562 leukemia): > 100 µM | TGI (KM12 colon): > 100 µM | TGI (LOX IMVI melanoma): > 100 µM | TGI (M14 melanoma): > 100 µM | TGI (MALME-3M melanoma): > 100 µM | TGI (MCF7 breast): > 100 µM | TGI (MDA-MB-231 breast): > 100 µM | TGI (MDA-MB-435): > 100 µM | TGI (MDA-N): > 100 µM | TGI (MOLT-4 leukemia): > 100 µM | TGI (NCI-H226 lung): > 100 µM | TGI (NCI-H23 lung): > 100 µM | TGI (NCI-H522 lung): > 100 µM | TGI (NCI/ADR-RES ovarian): > 100 µM | TGI (OVCAR-3 ovarian): 83.9 µM | TGI (OVCAR-4 ovarian): > 100 µM | TGI (OVCAR-5 ovarian): > 100 µM | TGI (OVCAR-8 ovarian): > 100 µM | TGI (RPMI-8226 leukemia): > 100 µM | TGI (RXF 393 renal): 92.9 µM | TGI (SF-268 CNS): > 100 µM | TGI (SF-295 CNS): > 100 µM | TGI (SF-539 CNS): > 100 µM | TGI (SK-MEL-2 melanoma): > 100 µM | TGI (SK-MEL-5 melanoma): > 100 µM | TGI (SK-OV-3 ovarian): > 100 µM | TGI (SN12C renal): > 100 µM | TGI (SNB-19 CNS): > 100 µM | TGI (SNB-75 CNS): > 100 µM | TGI (SR leukemia): > 100 µM | TGI (SW-620 colon): > 100 µM | TGI (T-47D breast): > 100 µM | TGI (TK-10 renal): > 100 µM | TGI (UACC-257 melanoma): > 100 µM | TGI (UACC-62 melanoma): > 100 µM | TGI (UO-31 renal): 57.1 µM
